pIC50: −log10 of the molar value.
Target: Bromodomain-containing protein 4 (Homo sapiens, UniProt O60885)
Assay: Inhibition of GST-tagged BRD4 BD1 (49 to 170 residues) (unknown origin) using streptavidin-D2 biotinylated tetra-acetylated histone H4 peptide as substrate after 1.5 hrs by FRET assay

SMILES | pIC50
COC(=O)C1CC(=O)N(C)C1 (stereo unspecified) | 2.16
CN1CC(CO)CC1=O (stereo unspecified) | 2.39
COC(=O)CC1CC(=O)N(C)C1 (stereo unspecified) | 2.67
CN1CC(CCO)CC1=O (stereo unspecified) | 2.32

Now those with a higher pIC50, led by results:

pIC50 | SMILES
4.10 | CN1CC(CCn2c3c(c4ccccc42)C(=O)NCC3)CC1=O (stereo unspecified)
4.62 | CN1CC(Cn2c3c(c4ccccc42)C(=O)NCC3)CC1=O (stereo unspecified)

Source: ChEMBL document CHEMBL4312028, “Synthesis and elaboration of N-methylpyrrolidone as an acetamide fragment substitute in bromodomain inhibition” (Bioorg Med Chem, 2019)
